pIC50, pKd, pKi: −log10 of the molar value. Converted amounts (≈) assume the structure as drawn.
Assays:
[1] = Aqueous solubility of the compound at pH 2; assay type: physicochemical; details: aqueous medium
[2] = Half life in rhesus monkey at 2 mg/kg, iv or 10 mg/kg, po; assay type: ADME, organism-based, Macaca mulatta; details: in vivo
Orexin receptor type 2 [3] = biological target: T1, Orexin receptor type 2 (Rattus norvegicus, UniProt P56719); assay type: functional
T1 sequence (P56719 whole entry): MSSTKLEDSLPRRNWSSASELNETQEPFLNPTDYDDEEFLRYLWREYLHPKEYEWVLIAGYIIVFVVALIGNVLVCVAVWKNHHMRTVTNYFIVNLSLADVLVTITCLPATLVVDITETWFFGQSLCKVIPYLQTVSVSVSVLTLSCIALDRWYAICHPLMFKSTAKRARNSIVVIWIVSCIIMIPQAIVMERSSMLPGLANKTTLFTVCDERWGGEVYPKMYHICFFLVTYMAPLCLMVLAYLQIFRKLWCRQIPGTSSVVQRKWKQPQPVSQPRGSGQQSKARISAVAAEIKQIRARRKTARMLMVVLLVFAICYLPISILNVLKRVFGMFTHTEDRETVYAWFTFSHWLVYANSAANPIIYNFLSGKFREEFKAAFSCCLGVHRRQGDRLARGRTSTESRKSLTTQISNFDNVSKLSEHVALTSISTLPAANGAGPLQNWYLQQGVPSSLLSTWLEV
Description: Antagonist activity at rat OX2 receptor assessed as inhibition of Ala-6,12 orexin-A-induced calcium increase preincubated for 5 mins prior to Ala-6,12 orexin-A addition measured at 1 sec intervals for 1 min by Fluo-4AM dye-based FLIPR assay

[4] = Cmax in rat at 50 mg/kg, po; assay type: ADME, organism-based; parameters: dose 50 mg/kg, route oral; details: in vivo
[5] = Oral bioavailability in rhesus monkey at 30 mg/kg; assay type: ADME, organism-based, Macaca mulatta; details: in vivo
[6] = biological target: T2, Orexin/Hypocretin receptor type 1 (Homo sapiens) (UniProt O43613); test: Binding affinity to OX1 receptor (unknown origin) assessed as association rate constant
T2 sequence (whole entry): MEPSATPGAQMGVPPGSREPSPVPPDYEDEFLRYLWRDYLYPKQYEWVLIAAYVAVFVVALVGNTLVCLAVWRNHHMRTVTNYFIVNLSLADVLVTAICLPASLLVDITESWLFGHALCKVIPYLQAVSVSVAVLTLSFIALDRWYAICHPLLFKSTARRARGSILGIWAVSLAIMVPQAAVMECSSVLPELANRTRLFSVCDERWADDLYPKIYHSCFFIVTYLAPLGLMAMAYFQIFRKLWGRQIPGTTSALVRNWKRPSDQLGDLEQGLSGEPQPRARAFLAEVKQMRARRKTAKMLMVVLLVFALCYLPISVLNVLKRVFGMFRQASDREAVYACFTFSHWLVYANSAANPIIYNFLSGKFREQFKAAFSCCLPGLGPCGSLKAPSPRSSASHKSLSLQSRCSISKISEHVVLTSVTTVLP

[7] = biological target: T3, Orexin/Hypocretin receptor type 1 (Rattus norvegicus, UniProt P56718); test: Antagonist activity at rat OX1 receptor assessed as inhibition of Ala-6,12 orexin-A-induced calcium increase preincubated for 5 mins prior to Ala-6,12 orexin-A addition measured at 1 sec intervals for 1 min by Fluo-4AM dye-based FLIPR assay; assay type: functional
T3 sequence (P56718 whole entry): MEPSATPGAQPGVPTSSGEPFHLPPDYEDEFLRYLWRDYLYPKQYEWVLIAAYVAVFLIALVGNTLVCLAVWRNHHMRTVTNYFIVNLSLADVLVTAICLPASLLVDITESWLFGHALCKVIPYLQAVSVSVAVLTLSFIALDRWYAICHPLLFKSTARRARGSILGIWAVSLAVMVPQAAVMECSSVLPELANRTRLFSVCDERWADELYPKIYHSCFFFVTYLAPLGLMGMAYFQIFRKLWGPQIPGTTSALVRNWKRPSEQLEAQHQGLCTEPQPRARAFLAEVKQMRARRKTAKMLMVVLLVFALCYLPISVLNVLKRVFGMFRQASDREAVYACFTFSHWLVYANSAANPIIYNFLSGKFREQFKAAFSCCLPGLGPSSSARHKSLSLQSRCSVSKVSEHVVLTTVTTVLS

Rattus norvegicus [8] = test: Displacement of (2S)-N-(2-phenylphenyl)-1-[2-[1-(tritritiomethyl)benzimidazol-2-yl]sulfanylacetyl]pyrrolidine-2-carboxamide from human OX1R expressed in transgenic rat brain administered orally; assay type: functional
Orexin receptor type 2 [9] = biological target: T4, Orexin receptor type 2 (Homo sapiens, UniProt O43614); test: Displacement of (2S)-N-(2-pyrrol-1-ylphenyl)-1-[2-[1-(tritritiomethyl)benzimidazol-2-yl]sulfanylacetyl]pyrrolidine-2-carboxamide from human OX2 receptor expressed on CHO cell membrane measured after 3 hrs by TopCount method; assay type: cell membranes
T4 sequence (O43614 whole entry): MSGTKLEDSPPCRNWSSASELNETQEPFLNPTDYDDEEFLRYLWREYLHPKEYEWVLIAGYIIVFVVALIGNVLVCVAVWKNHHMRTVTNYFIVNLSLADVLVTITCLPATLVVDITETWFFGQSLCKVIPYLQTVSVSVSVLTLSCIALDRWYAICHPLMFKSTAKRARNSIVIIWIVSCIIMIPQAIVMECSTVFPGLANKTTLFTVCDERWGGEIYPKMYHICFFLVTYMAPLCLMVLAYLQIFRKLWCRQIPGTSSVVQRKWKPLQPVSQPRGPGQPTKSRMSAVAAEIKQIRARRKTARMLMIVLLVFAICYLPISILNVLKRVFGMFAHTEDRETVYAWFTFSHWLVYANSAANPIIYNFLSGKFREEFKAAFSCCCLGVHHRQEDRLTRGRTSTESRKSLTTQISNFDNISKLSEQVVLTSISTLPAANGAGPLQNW

[10] = Clearance in rat at 2 mg/kg, iv; assay type: ADME, organism-based; details: in vivo
Rattus norvegicus [11] = species on record: Rattus norvegicus; test: Selectivity index, ratio of IC50 for rat OX2 receptor to IC50 for rat OX1 receptor
[12] = AUC in rat at 10 mg/kg, po; assay type: ADME, organism-based; details: in vivo
[13] = Protein binding in dog plasma; assay type: ADME, cell-free, Canis lupus familiaris; details: read-out: PPB (converted)
[14] = Half life in dog at 0.5 mg/kg, iv or 10 mg/kg, po; assay type: ADME, organism-based, Canis lupus familiaris; details: in vivo
[15] = Aqueous solubility of the compound at pH 7; assay type: physicochemical; details: aqueous medium
[16] = AUC in rat at 50 mg/kg, po; assay type: ADME, organism-based; details: in vivo
[17] = Selectivity index, ratio of IC50 for human OX1 receptor to IC50 for rat OX1 receptor
[18] = Oral bioavailability in rat at 10 mg/kg; assay type: ADME, organism-based; details: in vivo
Orexin receptor type 2 [19] = biological target: T4, Orexin receptor type 2; assay type: functional, cell-based, CHO
Description: Antagonist activity at human OX2 receptor expressed on CHO cell membrane assessed as inhibition of Ala-6,12 orexin-A-induced calcium increase preincubated for 5 mins prior to Ala-6,12 orexin-A addition measured at 1 sec intervals for 1 min by Fluo-4AM dye-based FLIPR assay

[20] = Protein binding in human plasma; assay type: ADME, cell-free; details: read-out: PPB (converted)
[21] = Displacement of (2S)-N-(2-phenylphenyl)-1-[2-[1-(tritritiomethyl)benzimidazol-2-yl]sulfanylacetyl]pyrrolidine-2-carboxamide from human OX1 receptor Ile408-Val mutant expressed on CHO cell membrane measured after 3 hrs by TopCount method; assay type: cell membranes
[22] = Intrinsic clearance in dog liver microsomes; assay type: ADME, Canis lupus familiaris; details: read-out: CLH
[23] = Half life in rat at 2 mg/kg, iv or 10 mg/kg, po; assay type: ADME, organism-based; details: in vivo
CHO = test: Selectivity index, ratio of Ki for human OX2 receptor expressed on CHO cell membrane to Ki for Ile408-Val variant human OX1 receptor expressed on CHO cell membrane; assay type: cell-based
[24] = biological target: T2, Orexin/Hypocretin receptor type 1 (Homo sapiens); test: Binding affinity to OX1 receptor (unknown origin) assessed as dissociation rate constant
[25] = Apparent permeability of the compound; assay type: ADME; details: not told
[26] = Protein binding in rat plasma; assay type: ADME, cell-free; details: read-out: PPB (converted)
[27] = Intrinsic clearance in human liver microsomes; assay type: ADME; details: read-out: CLH
[28] = biological target: T5, Orexin/Hypocretin receptor type 1 (Homo sapiens, UniProt O43613); test: Binding affinity to OX1 receptor (unknown origin)
T5 sequence (O43613 whole entry): T2 sequence (whole entry)

[29] = Clearance in dog at 0.5 mg/kg, iv or 10 mg/kg, po; assay type: ADME, organism-based, Canis lupus familiaris; details: in vivo
[30] = Intrinsic clearance in rat liver microsomes; assay type: ADME; details: read-out: CLH
[31] = Cmax in rat at 10 mg/kg, po; assay type: ADME, organism-based; parameters: dose 10 mg/kg, route oral; details: in vivo
[32] = Intrinsic clearance in rhesus monkey liver microsomes; assay type: ADME, Macaca mulatta; details: read-out: CLH
[33] = Clearance in rhesus monkey at 2 mg/kg, iv or 10 mg/kg, po; assay type: ADME, organism-based, Macaca mulatta; details: in vivo
[34] = Cmax in rat at 20 mg/kg, po; assay type: ADME, organism-based; parameters: dose 20 mg/kg, route oral; details: in vivo
[35] = Protein binding in rhesus monkey plasma; assay type: ADME, cell-free, Macaca mulatta; details: read-out: PPB (converted)
[36] = Antagonist activity at human OX1 receptor Ile408-Val mutant expressed on CHO cell membrane assessed as inhibition of Ala-6,12 orexin-A-induced calcium increase preincubated for 5 mins prior to Ala-6,12 orexin-A addition measured at 1 sec intervals for 1 min by Fluo-4AM dye-based FLIPR assay
[37] = AUC in rat at 20 mg/kg, po; assay type: ADME, organism-based; details: in vivo
[38] = Oral bioavailability in dog at 3 mg/kg; assay type: ADME, organism-based, Canis lupus familiaris; details: in vivo
[39] = Oral bioavailability in rhesus monkey at 10 mg/kg; assay type: ADME, organism-based, Macaca mulatta; details: in vivo
[40] = Drug metabolism in rat liver microsomes assessed as oxidation of banzamide; assay type: ADME

Compound	solubility [1]	half-life [2]	K [6]	pKi (Orexin receptor type 2 [9])	clearance [10]	Ratio IC50 (Rattus norvegicus [11])	fraction unbound [13]	half-life [14]	solubility [15]	Ratio IC50 [17]	bioavailability [18]	pIC50 (Orexin receptor type 2 [19])	fraction unbound [20]	pKi [21]	CLint scaled [22]	half-life [23]	Ratio Ki (CHO)	K [24]	Papp [25]	fraction unbound [26]	also measured
O=C(c1cccn2cncc12)N1CCC(F)(F)[C@@H](Oc2ccc3ccccc3n2)C1	194 µM (≈ 79.2 µg/mL)	0.8 h	1.08 ×10⁸ /M/s	6.00	75 mL/min/kg	> 625	0.08	0.5 h	171 µM (≈ 69.8 µg/mL)	3 to 4	13%	< 5.00	0.11	8.74	485 mL/min/kg	2.8 h	561	0.102 s⁻¹	35 ×10⁻⁶ cm/s	0.08	pKi (Orexin receptor type 2 [3]): < 5.00; Cmax [4]: 24 µM; bioavailability [5]: 1%; pKi [7]: 5.00 to 5.17; Occ50 (Rattus norvegicus [8]): 0.032 µM; AUC [12]: 0.77 µM·h; AUC [16]: 153 µM·h; CLint scaled [27]: 62 mL/min/kg; pKd [28]: 9.03; clearance [29]: 38 mL/min/kg; CLint scaled [30]: 320 mL/min/kg; Cmax [31]: 0.73 µM; CLint scaled [32]: 775 mL/min/kg; clearance [33]: 33 mL/min/kg; Cmax [34]: 5 µM; fraction unbound [35]: 0.06; pIC50 [36]: 7.52; AUC [37]: 8.3 µM·h; bioavailability [38]: 37%
O=C(c1nccc2[nH]cnc12)N1CCC(F)(F)[C@@H](Oc2ccc3ccccc3n2)C1	192 µM (≈ 78.6 µg/mL)	2 h	4.43 ×10⁷ /M/s	5.67	45 mL/min/kg	> 625	0.2	1 h	182 µM (≈ 74.5 µg/mL)	3 to 4	22%	< 5.00	0.14	8.28	< 75 mL/min/kg	3.2 h	411	0.21 s⁻¹	33 ×10⁻⁶ cm/s	0.17	pIC50 (Orexin receptor type 2 [3]): < 5.00; bioavailability [39]: 16%; pIC50 [7]: 7.80; Drug metabolism [40]: Metabolite_Notdetected; CLint scaled [27]: 55 mL/min/kg; pKd [28]: 8.32; clearance [29]: 12 mL/min/kg; CLint scaled [30]: 267 mL/min/kg; CLint scaled [32]: 189 mL/min/kg; clearance [33]: 25 mL/min/kg; fraction unbound [35]: 0.16; pIC50 [36]: 7.24; bioavailability [38]: 63%

— ChEMBL document CHEMBL3867477 (Bioorg Med Chem Lett, 2016)
